Here are results for five compounds from patent US20070179060A1, “6-(Poly-substituted aryl)-4-aminopicolinates and their use as herbicides” (priority 2006, published 2007).

In series [1] the test system is velvetleaf (Abutilon theophrasti). In words: Postemergence herbicidal activity. To be noted: Abutilon theophrasti, post-emergence, 336 h, post-emergent, 140 g ai/ha, after 14 days; read-out: % Control ABUTH. In kind it is in vivo. In short, it runs like this:
(§1)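 Plants grown 7-21 days in greenhouse (about 15 h photoperiod, 23-29° C day, 22-28° C night) to first or second true leaf stage. Compounds in acetone/water/isopropanol/DMSO carrier with crop oil concentrate and Triton X-155 sprayed overhead at 187 L/ha; controls received solvent blank. Plants sub-irrigated afterwards; dose responses analysed by probit analysis.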

For series [2], the system named is redroot pigweed (Amaranthus retroflexus). Nature of the series: Postemergence herbicidal activity. Conditions: Amaranthus retroflexus, post-emergence, 336 h, post-emergent, 140 g ai/ha, after 14 days; read-out: % Control AMARE. Type of series: in vivo. In short, it runs like this:
as §1

Series [3] deals with lambsquarter (Chenopodium album). In words: Postemergence herbicidal activity. In kind it is in vivo. To be noted: Chenopodium album, post-emergence, 336 h, post-emergent, 140 g ai/ha, after 14 days; read-out: % Control CHEAL. In short, it runs like this: as §1
The test system of series [4] is velvetleaf (Abutilon theophrasti). In words: Preemergence herbicidal activity. To be noted: Abutilon theophrasti, pre-emergence, 480 h; pre-emergent, 140 g ai/ha, after 20-22 days; read-out: % Control ABUTH. In kind it is in vivo. In short, it runs like this:
(§2)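 Seeds sown in 70:30 loam (pH about 8.1, about 1.5% organic matter) and sand mix, then sprayed preemergence at 187 L/ha with a track sprayer; controls received solvent blank. Pots kept in greenhouse, about 15 h photoperiod, about 23-29° C. day and 22-28° C. night, top-irrigated.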

Series [5] relates to redroot pigweed (Amaranthus retroflexus). In words: Preemergence herbicidal activity. In kind it is in vivo. Conditions: Amaranthus retroflexus, pre-emergence, 480 h; pre-emergent, 140 g ai/ha, after 20-22 days; read-out: % Control AMARE. The procedure, abridged: as §2
Series [6] relates to lambsquarter (Chenopodium album). In words: Preemergence herbicidal activity. To be noted: Chenopodium album, pre-emergence, 480 h; pre-emergent, 140 g ai/ha, after 20-22 days; read-out: % Control CHEAL. Type of series: in vivo. The procedure, abridged: as §2
For series [7], the system named is Scirpus juncoides. In words: Herbicidal activity in transplanted paddy rice. Type of series: in vivo. Conditions: paddy water application, after 3 weeks. As for the experimental part: (§3) Weed seeds or nutlets of the desired test plant species were planted in puddled soil (mud) prepared by mixing a non-sterilized mineral soil (28 percent silt, 18 percent clay, and 54 percent sand, with a pH of about 7.3 to 7.8 and an organic matter content of about 1.0 percent) and water at a ratio of 100 kg of soil to 19 L of water. The prepared mud was dispensed in 250 mL aliquots into 480 mL non-perforated plastic pots with a surface area of 91.6 square centimeters leaving a headspace of 3 centimeters in each pot. […] Seedlings at the second or third leaf stage of growth were transplanted into 650 mL of mud contained in 960 mL non-perforated plastic pots with a surface area of 91.6 square centimeters 4 days prior to herbicide application. The paddy was created by filling the 3 centimeter headspace of the pots with water. When required to ensure good germination and healthy plants, a fungicide treatment and/or other chemical or physical treatment was applied. The plants were grown for 4-14 days in a greenhouse with an approximate 14 hour photoperiod which was maintained at about 29° C. during the day and 26° C. during the night. Nutrients were added as Osmocote (17:6:10, N:P:K+minor nutrients) at 2 g per pot. Water was added on a regular basis to maintain the paddy flood, and supplemental lighting was provided with overhead metal halide 1000-Watt lamps as necessary. The plants were employed for testing when they reached the second or third true leaf stage. A weighed amount, determined by the highest rate to be tested, of each test compound was placed in a 120 mL glass vial and was dissolved in 20 mL of acetone to obtain concentrated stock solutions. […] Application rates of ½×, ¼×, ⅛× and 1/16× of the high rate were obtained by injecting an appropriate amount of the stock solution into the aqueous layer of the paddy. Control plants were treated in the same manner with the solvent blank. The treated plants and control plants were placed in a greenhouse as described above and water was added as needed to maintain a paddy flood.

Series [8] concerns Cyperus difformis. In words: Herbicidal activity in transplanted paddy rice. In kind it is in vivo. To be noted: paddy water application, after 3 weeks. As for the experimental part:
as §3

In series [9] the test system is rice (Orysa sativa var. Japonica). Nature of the series: Herbicidal activity in transplanted paddy rice. In kind it is in vivo. Conditions: transplant rice (crop), paddy water application, after 3 weeks. The procedure: as §3
In series [10] the test system is Monochoria vaginalis. In words: Herbicidal activity in transplanted paddy rice. Type of series: in vivo. Conditions: paddy water application, after 3 weeks. As for the experimental part:
as §3

For series [11], the system named is Echinochloa crus-galli. In words: Herbicidal activity in transplanted paddy rice. Conditions: paddy water application, after 3 weeks. In kind it is in vivo. The procedure:
as §3

The subject of series [12] is Papaver rhoeas. Nature of the series: Postemergence herbicidal activity in cereal crops. Type of series: in vivo. Conditions: post-emergent, 17.5 g ai/ha, after 20-22 days; for pest or weed control at 17.5 g/ha: Papaver rhoeas, post-emergence, 480 h, read-out: % Control PAPRH. The procedure, abridged:
(§4)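 Greenhouse plants at the second or third true leaf stage are sprayed postemergence by track sprayer delivering 187 L/ha. Spray solution is an acetone/water/isopropanol/DMSO mixture with crop oil concentrate and Triton X-77. Treated plants are kept at about 18 °C day/17 °C night under a ~14 h photoperiod with sub-irrigation; blank-sprayed plants serve as controls.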

The subject of series [13] is wheat (Triticum aestivum). Nature of the series: Postemergence herbicidal activity in cereal crops. In kind it is in vivo. To be noted: crop, post-emergent, 17.5 g ai/ha, after 20-22 days; for plant injury at 17.5 g/ha: Triticum aestivum, post-emergence, 480 h, read-out: % Control TRZAS. The procedure, abridged:
as §4

Series [14] relates to Galium aparine. In words: Postemergence herbicidal activity in cereal crops. Type of series: in vivo. To be noted: post-emergent, 17.5 g ai/ha, after 20-22 days; for pest or weed control at 17.5 g/ha: Galium aparine, post-emergence, 480 h, read-out: % Control GALAP. The procedure, abridged: as §4
Series [15] concerns barley (Hordeum vulare). In words: Postemergence herbicidal activity in cereal crops. Conditions: crop, post-emergent, 17.5 g ai/ha, after 20-22 days; for pest or weed control at 17.5 g/ha: Hordeum, post-emergence, 480 h, read-out: % Control HORVS. Type of series: in vivo. In short, it runs like this: as §4
Series [16] relates to Lamium purpureum. Nature of the series: Postemergence herbicidal activity in cereal crops. In kind it is in vivo. To be noted: post-emergent, 17.5 g ai/ha, after 20-22 days; for pest or weed control at 17.5 g/ha: Lamium purpureum, post-emergence, 480 h, read-out: % Control LAMPU. The procedure, abridged: as §4
In series [17] the test system is Veronica persica. Nature of the series: Postemergence herbicidal activity in cereal crops. Type of series: in vivo. Conditions: post-emergent, 17.5 g ai/ha, after 20-22 days; for pest or weed control at 17.5 g/ha: Veronica persica, post-emergence, 480 h, read-out: % Control VERPE. In short, it runs like this: as §4
The mark [18] stands for this setting: Schoenoplectiella juncoides, 504 h, 17.5 g ai/ha, read-out: % Control SCPJU.
The mark [19] stands for this setting: Cyperus difformis, 504 h, 17.5 g ai/ha, read-out: % Control CYPDI.
Where [20] appears, read: Oryza sativa, 504 h, 17.5 g ai/ha.
The mark [21] stands for this setting: Pontederia vaginalis, 504 h, 17.5 g ai/ha, read-out: % Control MOOVA.
[22] abbreviates: Echinochloa crus-galli, 504 h, 17.5 g ai/ha, read-out: % Control ECHCG.

One may read the melting point as the temperature, or range, at which the solid turns liquid. Regarding `CCOc1c(Cl)ccc(-c2cc(N)c(Cl)c(C(=O)OC)n2)c1F` [Compound 41, 4-amino-3-chloro-6-(4-chloro-2-fluoro-3-ethoxyphenyl)-pyridine-2-carboxylic acid methyl ester], the melting point is 154 to 156 °C. Further, the pest or weed control at 140 g/ha in series [1] is 95%. Further, the pest or weed control at 140 g/ha in series [2] is 85%. Besides, the pest or weed control at 140 g/ha in [3] was determined as 98%. Also, the pest or weed control at 140 g/ha in series [4] came out at 80%. In [5], the pest or weed control at 140 g/ha stood at 50%. In addition, the pest or weed control at 140 g/ha in series [6] came out at 90%. Besides, the pest or weed control at 17.5 g/ha in series [7] (setting [18]) is 90%. Also, the pest or weed control at 17.5 g/ha in [8] (setting [19]) stood at 100%. The compound further yielded a pest or weed control at 17.5 g/ha in series [9] (setting [20]) of 10%. Further, the pest or weed control at 17.5 g/ha in [10] (setting [21]) amounted to 100%. Besides, in series [11] (setting [22]), the pest or weed control at 17.5 g/ha turned out to be 50%.

`COC(=O)c1nc(-c2ccc(Br)c(OC)c2Cl)cc(N)c1Cl` [Compound 52, 4-Amino-6-(4-bromo-2-chloro-3-methoxyphenyl)-3-chloropyridine-2-carboxylic acid, methyl ester] gave a melting point of 154 to 155 °C. Moreover, the pest or weed control at 140 g/ha in series [1] came to 100%. Also, the pest or weed control at 140 g/ha in series [2] is 100%. The pest or weed control at 140 g/ha in series [3] came to 95%. In addition, in series [4], the pest or weed control at 140 g/ha worked out at 100%. For the same compound, the pest or weed control at 140 g/ha in [5] was determined as 100%. Moreover, the pest or weed control at 140 g/ha in series [6] came to 90%. For the same compound, in series [7] (Schoenoplectiella juncoides, 504 h, 70 g ai/ha, read-out: % Control SCPJU), the pest or weed control at 70 g/ha is 95%. For the same compound, the pest or weed control at 70 g/ha in series [8] (Cyperus difformis, 504 h, 70 g ai/ha, read-out: % Control CYPDI) was 100%. This compound also showed a pest or weed control at 70 g/ha in series [9] (Oryza sativa, 504 h, 70 g ai/ha) of 0%. Also, in series [10] (Pontederia vaginalis, 504 h, 70 g ai/ha, read-out: % Control MOOVA), the pest or weed control at 70 g/ha stood at 99%. Also, the pest or weed control at 70 g/ha in [11] (Echinochloa crus-galli, 504 h, 70 g ai/ha, read-out: % Control ECHCG) is 60%.

Regarding `COC(=O)c1nc(-c2ccc(Cl)c(C(C)F)c2F)cc(N)c1Cl` (stereo not drawn) [Compound 61, 4-Amino-3-chloro-6-[4-chloro-2-fluoro-3-(1-fluoroethyl)phenyl]pyridine-2-carboxylic acid, methyl ester], the pest or weed control at 140 g/ha in series [1], in series [2] and in series [3] was 100% throughout. Besides, the pest or weed control at 17.5 g/ha in [12] was 90%; in series [14], 85%; in series [15], 0%; in series [16], 99%; in series [17], 75%. In addition, the plant injury at 17.5 g/ha in series [13] is 10%. Moreover, the pest or weed control at 35 g/ha in [7] (Schoenoplectiella juncoides, 504 h, 35 g ai/ha, read-out: % Control SCPJU) was 100%; in series [8] (Cyperus difformis, 504 h, 35 g ai/ha, read-out: % Control CYPDI), 100%; in series [9] (Oryza sativa, 504 h, 35 g ai/ha), 0%; in series [10] (Pontederia vaginalis, 504 h, 35 g ai/ha, read-out: % Control MOOVA), 100%; in series [11] (Echinochloa crus-galli, 504 h, 35 g ai/ha, read-out: % Control ECHCG) it was 80%.

Regarding `CCCCOC(=O)c1nc(-c2ccc(Br)c(OC)c2F)cc(N)c1Cl` [Compound 90, 4-Amino-3-chloro-6-(4-bromo-2-fluoro-3-methoxyphenyl)pyridine-2-carboxylic acid, butyl ester], the pest or weed control at 140 g/ha in [1] amounted to 100%; in series [2] it was 85%; in series [3], 100%. Moreover, the pest or weed control at 17.5 g/ha is 95% in series [12]; 99% in series [14]; 10% in series [15]; 100% in series [16]; 25% in series [17]; 90% in series [7] (setting [18]). Further, the pest or weed control at 17.5 g/ha was determined as 100% in [8] (setting [19]), 0% in [9] (setting [20]), 100% in series [10] (setting [21]) and 30% in [11] (setting [22]). For the same compound, the plant injury at 17.5 g/ha in series [13] was 0%.

Turning to `CCN(CC)CC.COc1c(Cl)ccc(-c2cc(N)c(Cl)c(C(=O)O)n2)c1F` [Compound 135, 4-amino-3-chloro-6-(4-chloro-2-fluoro-3-methoxyphenyl)-pyridine-2-carboxylic acid, triethyl amine salt], in [12], the “% Control PAPRH” value is recorded as 100%. Also, the “% Control TRZAS” value in series [13] is recorded as 0%. The “% Control GALAP” value in series [14] worked out at 90%. The “% Control HORVS” value in [15] turned out to be 0%. Further, the “% Control LAMPU” value in series [16] is listed as 100%. Besides, the “% Control VERPE” value in series [17] turned out to be 60%. Moreover, the “% Control SCPJU” value in [7] (17.5 g ai/ha) is 85%. Also, the “% Control CYPDI” value in [8] (17.5 g ai/ha) is 100%. For the same compound, the “% Control ORYSA” value in series [9] (17.5 g ai/ha) was determined as 10%. Moreover, the “% Control MOOVA” value in [10] (17.5 g ai/ha) was 100%. For the same compound, in series [11] (17.5 g ai/ha), the “% Control ECHCG” value amounted to 30%.
